The source of these data is ChEMBL document CHEMBL1687795, “Mathematical modeling to characterize the inoculum effect” (2010).

Test [1] has as its system Escherichia coli. As to the kind of experiment: Bactericidal activity against Escherichia coli ATCC 25922 using 10^8 CFU/ml inoculum assessed as log reduction in bacterial count at 256 times MIC after 24 hrs by time-kill study. Type of test: functional.
Test [2] deals with Escherichia coli. As to the kind of experiment: Bactericidal activity against Escherichia coli ATCC 25922 using 10^5 CFU/ml inoculum assessed as log reduction in bacterial count at 4 times MIC after 24 hrs by time-kill study. The class given is functional.
Test [3] concerns Escherichia coli. As to the kind of experiment: Antimicrobial activity against Escherichia coli ATCC 25922 by broth macrodilution method. The class given is functional.
The subject of test [4] is Escherichia coli. As to the kind of experiment: Antimicrobial activity against Escherichia coli ATCC 25922 by broth macrodilution method in presence of beta-lactamase inhibitor Tazobactam. Type of test: functional, organism-based.

≈ marks a conversion by molar mass, not a printed value. Calls of active or inactive are those of the source. No cut-off for these calls is given here.

Turning to `CCN1CCN(C(=O)N[C@@H](C(=O)N[C@@H]2C(=O)N3[C@@H]2SC(C)(C)[C@@H]3C(=O)O)c2ccccc2)C(=O)C1=O` [PIPERACILLIN], the FC in the test on Escherichia coli [1] is over 2. Also, the FC with Escherichia coli [2] was over 2. In the test on Escherichia coli [3], this compound yielded a minimal bactericidal concentration (MBC) of 2 µg/mL (≈ 3.86 µM) and an MIC of 2 µg/mL (≈ 3.86 µM). For the same compound, the result in the test on Escherichia coli [4] was Active.
